Here are results for three compounds from paper PMC4107925, “Diverse modes of binding in structures of Leishmania major N-myristoyltransferase with selective inhibitors” (IUCrJ, 2014).

Assay [1] deals with T1, LdNMT (Leishmania donovani, UniProt D0AB09).
T1 sequence (D0AB09 1-421): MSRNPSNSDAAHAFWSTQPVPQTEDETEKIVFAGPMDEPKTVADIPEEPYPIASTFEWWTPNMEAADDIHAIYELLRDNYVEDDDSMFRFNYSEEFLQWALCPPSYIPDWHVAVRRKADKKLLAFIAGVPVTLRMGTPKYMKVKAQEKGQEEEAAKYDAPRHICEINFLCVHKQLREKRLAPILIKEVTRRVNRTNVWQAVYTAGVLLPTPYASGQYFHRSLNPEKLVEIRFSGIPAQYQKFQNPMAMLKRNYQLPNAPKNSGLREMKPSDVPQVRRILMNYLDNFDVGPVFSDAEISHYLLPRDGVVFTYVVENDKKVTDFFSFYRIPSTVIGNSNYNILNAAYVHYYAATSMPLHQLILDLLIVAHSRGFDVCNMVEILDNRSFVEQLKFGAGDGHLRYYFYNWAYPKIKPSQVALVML
Briefly: NMT enzyme inhibition assay (non-radioactive), L. donovani NMT. The settings on record: for LE (ligand efficiency): LE = 1.4(-logLdNMT IC50)/N, N = number of non-H atoms; for IC50: read-out: IC50 LdNMT. Format: biochemical.

Assay [2] concerns the target LmNMT (Leishmania major, UniProt Q4Q5S8). Briefly: biochemical. The settings on record: read-out: IC50 LmNMT.
The target of assay [3] is T2, HsNMT1 (Homo sapiens, UniProt P30419).
T2 sequence (P30419 1-496): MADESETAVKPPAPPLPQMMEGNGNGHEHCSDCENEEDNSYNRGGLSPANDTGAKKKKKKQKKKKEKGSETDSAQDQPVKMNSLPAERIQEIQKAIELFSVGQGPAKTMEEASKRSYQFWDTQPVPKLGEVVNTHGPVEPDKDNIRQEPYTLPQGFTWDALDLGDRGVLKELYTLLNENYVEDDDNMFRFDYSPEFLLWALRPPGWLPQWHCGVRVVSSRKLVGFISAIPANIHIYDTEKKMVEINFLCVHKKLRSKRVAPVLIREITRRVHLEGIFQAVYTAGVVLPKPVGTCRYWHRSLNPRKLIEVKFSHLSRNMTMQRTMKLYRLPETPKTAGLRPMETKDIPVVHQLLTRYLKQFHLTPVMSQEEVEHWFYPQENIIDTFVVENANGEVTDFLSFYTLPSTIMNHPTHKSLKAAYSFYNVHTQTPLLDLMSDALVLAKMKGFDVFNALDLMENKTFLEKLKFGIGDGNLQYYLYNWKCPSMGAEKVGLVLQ
In words: NMT enzyme inhibition assay (non-radioactive), human NMT. Type of assay: biochemical. The settings on record: for IC50: human NMT isoform 1 (HsNMT1), read-out: IC50 HsNMT; for selectivity factor: LdNMT IC50 versus human enzyme IC50.

Several values for one entry are separate records, joined by “and”; a condition that tells them apart may be missing. Identical values can stand only once.

Sequence of LmNMT (Q4Q5S8 5-421 limits assumed): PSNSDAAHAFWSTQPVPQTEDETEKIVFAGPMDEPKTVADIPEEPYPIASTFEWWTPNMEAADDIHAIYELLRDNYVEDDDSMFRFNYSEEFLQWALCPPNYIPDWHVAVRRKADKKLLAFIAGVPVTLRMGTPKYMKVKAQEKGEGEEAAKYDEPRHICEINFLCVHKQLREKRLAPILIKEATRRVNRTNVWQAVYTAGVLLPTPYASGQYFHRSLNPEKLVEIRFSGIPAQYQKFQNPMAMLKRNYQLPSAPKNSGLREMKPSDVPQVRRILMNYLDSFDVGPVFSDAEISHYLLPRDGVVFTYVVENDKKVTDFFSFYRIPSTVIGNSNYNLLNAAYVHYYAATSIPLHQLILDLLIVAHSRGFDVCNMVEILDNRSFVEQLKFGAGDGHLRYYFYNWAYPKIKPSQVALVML

Turning to `CN1CCC(N(C)c2nc(N(C)CCC#N)c3sccc3n2)CC1` [6KV], in assay [1], the “LE (ligand efficiency)” value was 0.34. For the same compound, the IC50 (as a rule, the concentration needed to halve the response being measured) was 250 nM and 247 nM in assay [1]; 299 ± 89 nM in assay [2]; 3560 ± 490 nM in assay [3]. The “selectivity against HsNMT1” value in assay [3] (LdNMT over HsNMT1) was “approximately tenfold”.
`c1cncc(CCNCc2cccc(-c3cccc(CN4CCc5ncsc5C4)c3)c2)c1` [CWZ]: in assay [1], the “LE (ligand efficiency)” value stood at 0.29. The IC50 in assay [1] is 900 nM and 914 nM; in assay [2], 1020 ± 100 nM; in assay [3], 45000 nM and 45500 nM. Moreover, in assay [3], the selectivity factor was determined as 50.
Turning to `N[C@@H](CC(=O)N1C[C@H](CO)[C@@H](c2ccc(Cl)cc2)C1)Cc1ccc(Cl)cc1` [A6K], in assay [1], the “LE (ligand efficiency)” value was 0.35 and the IC50 came out at 77 ± 7 nM. Besides, the IC50 in assay [2] was 31 ± 4 nM. Besides, in assay [3], the selectivity factor is recorded as approximately 80; the IC50 is 5000 nM and 5160 nM.
